Data published in ChEMBL document CHEMBL1201862, “PubChem BioAssay data set” (2004).
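Protocol summary: plate cells (96-well), add compound at 5 concentrations, incubate 48 h, interpolate endpoints linearly. At the GI50, growth is halved.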 Calls of active or inactive are those of the source. Rule as the data show it: active = GI50 up to about 1.1 µM and inactive = higher.

Key:
Assay in all cases: NCI tumour cell line growth inhibition, 48 h
LXFL 529 = system: LXFL 529
OVCAR-3 = system: OVCAR-3
KM12 = system: KM12
UO-31 = system: UO-31
IGROV-1 = system: IGROV-1
A498 = system: A498
DMS-114 = system: DMS-114
RPMI-8226 = system: RPMI-8226
DLD-1 = system: DLD-1
KM-20L2 = system: KM-20L2
HT-29 = system: HT-29
SN12C = system: SN12C
HCT-15 = system: HCT-15
HL-60 = system: HL-60
HOP-62 = system: HOP-62
COLO 205 = system: COLO 205
K562 = system: K562
HCT-116 = system: HCT-116
SNB-78 = system: SNB-78
A549 = system: A549
786-0 = system: 786-0
UACC-62 = system: UACC-62
NCI-H460 = system: NCI-H460
ACHN = system: ACHN
SNB-19 = system: SNB-19
Malme-3M = system: Malme-3M
EKVX = system: EKVX
NCI-H226 = system: NCI-H226
OVCAR-5 = system: OVCAR-5
SNB-75 = system: SNB-75
M14 = system: M14
OVCAR-8 = system: OVCAR-8
HCC 2998 = system: HCC 2998
M19-MEL = system: M19-MEL
U-251 = system: U-251
NCI-H23 = system: NCI-H23
UACC-257 = system: UACC-257
HOP-92 = system: HOP-92
SW-620 = system: SW-620
NCI/ADR-RES = system: NCI/ADR-RES
SF-268 = system: SF-268
BT-549 = system: BT-549
OVCAR-4 = system: OVCAR-4
Hs-578T = system: Hs-578T
MOLT-4 = system: MOLT-4
PC-3 = system: PC-3
MDA-N = system: MDA-N
SR = system: SR
SF-539 = system: SF-539
NCI-H522 = system: NCI-H522
MDA-MB-231 = system: MDA-MB-231
RXF 393 = system: RXF 393
SK-OV-3 = system: SK-OV-3
MCF7 = system: MCF7
SK-MEL-28 = system: SK-MEL-28
CCRF-CEM = system: CCRF-CEM
SK-MEL-5 = system: SK-MEL-5
MDA-MB-435 = system: MDA-MB-435
TK-10 = system: TK-10
CAKI-1 = system: CAKI-1
T47D = system: T47D
SK-MEL-2 = system: SK-MEL-2
DU-145 = system: DU-145
LOX IMVI = system: LOX IMVI
SF-295 = system: SF-295

Measured: GI50

COc1cccc(C2CC(C)=Nc3c(ccc4c3C(=O)c3ccccc3C4=O)N2)c1O (configuration not stated)
inactive: LXFL 529 > 100 µM | OVCAR-3 9.71 µM | KM12 3.59 µM | UO-31 33 µM | IGROV-1 > 100 µM | A498 > 100 µM | DMS-114 > 100 µM | RPMI-8226 79.3 µM | DLD-1 15 µM | KM-20L2 > 100 µM | HT-29 > 100 µM | SN12C > 100 µM | HL-60 5.41 µM | HOP-62 3.24 µM | COLO 205 > 100 µM | K562 > 100 µM | HCT-116 > 100 µM | SNB-78 > 100 µM | A549 > 100 µM | 786-0 > 100 µM | UACC-62 > 100 µM | NCI-H460 7.52 µM | ACHN 9.46 µM | SNB-19 > 100 µM | Malme-3M > 100 µM | EKVX > 100 µM | NCI-H226 33.6 µM | OVCAR-5 > 100 µM | SNB-75 > 100 µM | M14 9.2 µM | OVCAR-8 4.94 µM | HCC 2998 > 100 µM | M19-MEL 9.62 µM | U-251 3.78 µM | NCI-H23 > 100 µM | UACC-257 3 µM | HOP-92 > 100 µM | SW-620 20.5 µM
26.9 µM: HCT-15

COc1cc2c3c(cc(Cl)nc3c1OC)C(O)(CC(C)=O)C(=O)N2 (configuration not stated)
inactive: OVCAR-3 33 µM | NCI/ADR-RES > 44.9 µM | KM12 > 45.5 µM | SF-268 6.07 µM | BT-549 16.8 µM | UO-31 23.2 µM | IGROV-1 19.1 µM | OVCAR-4 17.8 µM | A498 18.3 µM | Hs-578T 40.3 µM | RPMI-8226 23.8 µM | MOLT-4 9.35 µM | HT-29 > 45.7 µM | SN12C 21.7 µM | PC-3 25.1 µM | MDA-N 17.3 µM | HL-60 6.79 µM | HOP-62 > 44.6 µM | COLO 205 38.1 µM | SR 19.3 µM | K562 18.5 µM | SF-539 > 100 µM | HCT-116 17.3 µM | A549 > 42.9 µM | 786-0 17.1 µM | UACC-62 16.6 µM | NCI-H460 36 µM | NCI-H522 8.97 µM | ACHN 24.9 µM | SNB-19 > 40.3 µM | MDA-MB-231 17 µM | Malme-3M 15.9 µM | EKVX 16.2 µM | RXF 393 16.3 µM | NCI-H226 > 42.3 µM | OVCAR-5 > 42.4 µM | SNB-75 38.6 µM | M14 18.9 µM | OVCAR-8 18.5 µM | SK-OV-3 > 47.1 µM | MCF7 16 µM | SK-MEL-28 > 45.4 µM | HCC 2998 > 44 µM | CCRF-CEM 9.18 µM | SK-MEL-5 > 41 µM | MDA-MB-435 16.4 µM | TK-10 20.2 µM | U-251 57.8 µM | NCI-H23 30.7 µM | CAKI-1 22.1 µM | T47D 3.2 µM | SK-MEL-2 20.3 µM | DU-145 > 39.1 µM | LOX IMVI 16.3 µM | UACC-257 8 µM | HOP-92 19.1 µM | SW-620 27.4 µM | SF-295 > 100 µM
> 43.4 µM: HCT-15

COc1cc(C2c3cc4c(cc3OC(NCCc3ccccc3)C2C)OCO4)cc(OC)c1OC (configuration not stated)
0.385 µM: HCT-15
inactive: ACHN 1.36 µM | EKVX 1.56 µM | OVCAR-5 1.75 µM | SK-MEL-28 18.3 µM | TK-10 26.5 µM | UACC-257 6.34 µM | HOP-92 4.67 µM
active: OVCAR-3 0.378 µM | NCI/ADR-RES 0.31 µM | KM12 0.316 µM | SF-268 0.736 µM | BT-549 0.617 µM | UO-31 0.457 µM | IGROV-1 0.367 µM | OVCAR-4 0.778 µM | A498 0.574 µM | Hs-578T 0.138 µM | RPMI-8226 0.319 µM | MOLT-4 0.515 µM | HT-29 0.321 µM | SN12C 0.698 µM | PC-3 0.336 µM | MDA-N 0.0638 µM | HL-60 0.208 µM | HOP-62 0.614 µM | COLO 205 0.242 µM | SR 0.174 µM | K562 0.269 µM | SF-539 0.286 µM | HCT-116 0.409 µM | A549 0.452 µM | 786-0 0.465 µM | UACC-62 0.388 µM | NCI-H460 0.418 µM | NCI-H522 0.248 µM | SNB-19 0.455 µM | MDA-MB-231 0.249 µM | Malme-3M 0.231 µM | RXF 393 0.203 µM | NCI-H226 0.871 µM | SNB-75 0.198 µM | M14 0.356 µM | OVCAR-8 0.441 µM | SK-OV-3 0.397 µM | MCF7 0.383 µM | HCC 2998 0.282 µM | CCRF-CEM 0.343 µM | SK-MEL-5 0.224 µM | MDA-MB-435 0.111 µM | U-251 0.348 µM | NCI-H23 0.413 µM | CAKI-1 0.291 µM | T47D 0.295 µM | SK-MEL-2 0.393 µM | DU-145 0.431 µM | LOX IMVI 0.497 µM | SW-620 0.316 µM | SF-295 0.2 µM
